Assay results as given in US9932637B2, “Genetic polymorphisms associated with cardiovascular disorders and drug response, methods of detection and uses thereof” (CELERA CORPORATION, priority 2003, dated 2018).

System: patients with prior myocardial infarction (CARE study)
Experiment: CARE trial: pravastatin vs placebo, recurrent MI (RMI), overall and by ABCA1/NPC1/HSPG2 genotype pattern
Assay type: in vivo, human
Text: In order to identify genetic markers associated with acute coronary events (e.g. MI, stroke, unstable angina, congestive heart failure, etc.) or response to statin treatment for the prevention of coronary events, samples from the Cholesterol and Recurrent Events (CARE) study (a randomized multicentral double-blinded trial on secondary prevention of acute coronary events with pravastatin) (Sacks et al., 1991, Am. J. Cardiol. 68: 1436-1446) were genotyped. A well-documented myocardial infarction (MI) was one of the enrollment criteria for entry into the CARE study. Patients were enrolled in the CARE trial from 80 participating study centers. […] Patients were randomized to receive either 40 mg of pravastatin once daily or a matching placebo. The primary endpoint of the trial was death from coronary heart disease and the median duration of follow-up was 5.0 years (range, 4.0 to 6.2 years). […] Secondary endpoints of other related cardiovascular or metabolic disease events, and changes in clinical variables were also recorded in pravastatin-treated and placebo groups. All individuals included in the study had signed a written informed consent form and the study protocol was approved by the respective Institutional Review Boards (IRBs).
For genotyping SNPs in CARE patient samples, DNA was extracted from blood samples using conventional DNA extraction methods such as the QIA-amp kit from Qiagen. Genotypes were obtained on an ABI PRISM® 7900HT Sequence Detection PCR system (Applied Biosystems, Foster City, Calif.) by kinetic allele-specific PCR, similar to the method described by Germer et al. (Germer S., Holland M. J., Higuchi R. 2000, Genome Res. 10: 258-266).
The genotype data generated from the DNA of patients who participated in the CARE study was analyzed to determine the effect that pravastatin treatment had on the occurrence of RMI in patients with each of the potential genotypes (low risk, protective or high risk, non-protective) for the ABCA1 gene, the NPC1 gene and the […] gene independently.
The effect of pravastatin treatment on the occurrence of RMI in patients with each of the potential genotypes (protective, low risk genotype or non-protective, high risk genotype) for each of the ABCA1 gene, NPC1 gene, and HSPG2 gene alone, and combinations with the other two genes thereof are presented in Table 17.
This is a 50% reduction in risk over a 5 year period for RMI. […] This is an 80% reduction in risk over a 5 year period for RMI.

[1] = Pattern 0, pravastatin vs placebo
[2] = Pattern 2, pravastatin vs placebo
[3] = Pattern 3, pravastatin vs placebo

CC[C@H](C)C(=O)O[C@H]1C[C@H](O)C=C2C=C[C@H](C)[C@H](CC[C@@H](O)C[C@@H](O)CC(=O)O)[C@H]21 [pravastatin]
No RMI (number of patients) (All, pravastatin arm): 1367 | RMI (number of patients) (All, pravastatin arm): 106 | Risk (of RMI) (All, pravastatin arm): 0.072 | RDStatin (All, pravastatin vs placebo): 0.023 | RRStatin (All, pravastatin vs placebo): 0.76 | 5 year risk of a RMI (CARE patients with pattern 0 genotypes receiving pravastatin): 7.9% | 5 year risk of a RMI (CARE patients with pattern 2 genotypes receiving pravastatin): 6.8% | 5 year risk of a RMI (CARE patients with pattern 3 genotype receiving pravastatin): 4.6% | reduction in risk for RMI in treatment vs. placebo groups (CARE, all patients): 25% | 5 year risk of having a recurrent MI (RMI) (CARE, all patients who received pravastatin 40 mg once daily): 7.2% | Cox Proportional Hazard Ratio (HR age-adjusted) for RMI (CARE, all patients, pravastatin vs placebo): 0.75 | Age-adjusted pravastatin effect on RMI, RR (High risk ABCA1 genotype): 0.9567 | Age-adjusted pravastatin effect on RMI, RR (High risk HSPG2 genotype): 0.8097 | Age-adjusted pravastatin effect on RMI, RR (High risk NPC1 genotype): 1.0824 | Age-adjusted pravastatin effect on RMI, RR (High risk, non-protective genotypes (ABCA1, NPC1, HSPG2)): 1.7175 | Age-adjusted pravastatin effect on RMI, RR (Low risk ABCA1, NPC1 and HSPG2 (pattern 3 genotype)): 0.2399 | Age-adjusted pravastatin effect on RMI, RR (Low risk ABCA1 and HSPG2 only): 1.0054 | Age-adjusted pravastatin effect on RMI, RR (Low risk ABCA1 and NPC1 only (pattern 2 genotype)): 0.5258 | Age-adjusted pravastatin effect on RMI, RR (Low risk ABCA1 genotype): 0.5883 | Age-adjusted pravastatin effect on RMI, RR (Low risk HSPG2 genotype): 0.3934 | Age-adjusted pravastatin effect on RMI, RR (Low risk NPC1 and HSPG2 only): 0.2964 | Age-adjusted pravastatin effect on RMI, RR (Low risk NPC1 genotype): 0.5938 | Age-adjusted pravastatin effect on RMI, RR (Low risk, protective ABCA1 only): 0.8765 | Age-adjusted pravastatin effect on RMI, RR (Low risk, protective HSPG2 only): 0.2487 | Age-adjusted pravastatin effect on RMI, RR (Low risk, protective NPC1 only): 0.8954 | No RMI (number of patients) (Pattern 0, pravastatin arm): 906 | RMI (number of patients) (Pattern 0, pravastatin arm): 78 | Risk (of RMI) (Pattern 0, pravastatin arm): 0.079 | RDStatin [1]: 0.001 | RRStatin [1]: 0.98 | No RMI (number of patients) (Pattern 2, pravastatin arm): 342 | RMI (number of patients) (Pattern 2, pravastatin arm): 25 | Risk (of RMI) (Pattern 2, pravastatin arm): 0.068 | RDStatin [2]: 0.057 | RRStatin [2]: 0.55 | No RMI (number of patients) (Pattern 3, pravastatin arm): 62 | RMI (number of patients) (Pattern 3, pravastatin arm): 3 | Risk (of RMI) (Pattern 3, pravastatin arm): 0.046 | RDStatin [3]: 0.147 | RRStatin [3]: 0.24 | HR for RMI, pravastatin vs no statin (pattern 2 genotypes): 0.53 | reduction in risk over a 5 year period for RMI (pattern 2 genotypes): 50% | HR for RMI, pravastatin vs no statin (pattern 3 genotype): 0.2 | reduction in risk over a 5 year period for RMI (pattern 3 genotype): 80%
